Test results from ChEMBL document CHEMBL5154777, “Alternative approaches utilizing click chemistry to develop next-generation analogs of solithromycin” (2022).
Converted amounts (≈) assume the structure as drawn.

How the values were obtained:
Assay type in all cases: functional
Staphylococcus aureus [1] = assay: Antibacterial activity against Staphylococcus aureus ATCC 29213
Escherichia coli [2] = assay: Antibacterial activity against Escherichia coli MG1655
Escherichia coli [3] = assay: Antibacterial activity against Escherichia coli SQ171
Enterococcus faecium = assay: Antibacterial activity against Enterococcus faecium NCTC 7171
Streptococcus pneumoniae [4] = assay: Antibacterial activity against Streptococcus pneumoniae 655 mef A
Enterobacter cloacae = assay: Antibacterial activity against Enterobacter cloacae ATCC 13047
Pseudomonas aeruginosa = assay: Antibacterial activity against Pseudomonas aeruginosa HER 1018
Escherichia coli [5] = assay: Antibacterial activity against Escherichia coli SQ171 2058G
Acinetobacter baumannii = assay: Antibacterial activity against Acinetobacter baumannii 2208 ATCC 19606
Staphylococcus aureus [6] = assay: Antibacterial activity against Staphylococcus aureus ATCC 33591
Escherichia coli [7] = assay: Antibacterial activity against Escherichia coli DK2058G
Escherichia coli [8] = assay: Antibacterial activity against Escherichia coli DK
Streptococcus pneumoniae [9] = assay: Antibacterial activity against Streptococcus pneumoniae 2196 erm B
Klebsiella pneumoniae = assay: Antibacterial activity against Klebsiella pneumoniae BAA 2146
Staphylococcus aureus [10] = assay: Antibacterial activity against methicillin-resistant Staphylococcus aureus ATCC 43300
Streptococcus pneumoniae [11] = assay: Antibacterial activity against Streptococcus pneumoniae 2634 mef A 2059G
Escherichia coli [12] = assay: Antibacterial activity against Escherichia coli DK3535
Staphylococcus aureus [13] = assay: Antibacterial activity against Staphylococcus aureus UCN17
Staphylococcus aureus [14] = assay: Antibacterial activity against Staphylococcus aureus UCN18
Staphylococcus aureus [15] = assay: Antibacterial activity against Staphylococcus aureus UCN14

CC[C@H]1OC(=O)[C@@](C)(F)C(=O)[C@H](C)[C@@H](O[C@@H]2O[C@H](C)C[C@H](N(C)C)[C@H]2O)[C@](C)(OC)C[C@@H](C)C(=O)[C@H](C)[C@H]2N(CCCCn3cc(-c4cccc(N)c4)nn3)C(=O)O[C@]12C [SOLITHROMYCIN]
MIC (Staphylococcus aureus [1]): 0.071 µM (≈ 0.06 µg/mL) | MIC (Escherichia coli [2]): 100 µM (≈ 84.5 µg/mL) | MIC (Escherichia coli [3]): > 38 µM | MIC (Enterococcus faecium): 0.2 µM (≈ 0.169 µg/mL) | MIC (Streptococcus pneumoniae [4]): 0.29 µM (≈ 0.245 µg/mL) | MIC (Enterobacter cloacae): 200 µM (≈ 169 µg/mL) | MIC (Pseudomonas aeruginosa): 30 µM (≈ 25.4 µg/mL) | MIC (Escherichia coli [5]): > 38 µM | MIC (Acinetobacter baumannii): 50 µM (≈ 42.3 µg/mL) | MIC (Staphylococcus aureus [6]): 38 µM (≈ 32.1 µg/mL) | MIC (Escherichia coli [7]): 4.7 µM (≈ 3.97 µg/mL) | MIC (Escherichia coli [8]): 2.4 µM (≈ 2.03 µg/mL) | MIC (Streptococcus pneumoniae [9]): 0.59 µM (≈ 0.499 µg/mL) | MIC (Klebsiella pneumoniae): 100 µM (≈ 84.5 µg/mL) | MIC (Staphylococcus aureus [10]): > 200 µM | MIC (Streptococcus pneumoniae [11]): 0.15 µM (≈ 0.127 µg/mL) | MIC (Escherichia coli [12]): 2.4 µM (≈ 2.03 µg/mL) | MIC (Staphylococcus aureus [13]): 4.7 µM (≈ 3.97 µg/mL) | MIC (Staphylococcus aureus [14]): 4.7 µM (≈ 3.97 µg/mL) | MIC (Staphylococcus aureus [15]): 9.5 µM (≈ 8.03 µg/mL)
